# Data as given in publication PMC4901312, “Ecological factors drive natural selection pressure of avian aryl hydrocarbon receptor 1 genotypes” (Scientific Reports, 2016).
# Assays:
# Test in all cases: luciferase reporter gene transactivation assay (ckCYP1A5 promoter) in transfected COS-7 cells; LOEC
# Format in all cases: cell-based
# [1] = biological target: T1, black-footed albatross AHR1 (bfaAHR1) (Phoebastria nigripes, UniProt Q76EQ7)
# T1 construct: full-length cDNA in pcDNA3.1 zeo (+), expressed in COS-7 cells; with chicken ARNT1 (ckARNT1)
# T1 sequence (Q76EQ7 1-861): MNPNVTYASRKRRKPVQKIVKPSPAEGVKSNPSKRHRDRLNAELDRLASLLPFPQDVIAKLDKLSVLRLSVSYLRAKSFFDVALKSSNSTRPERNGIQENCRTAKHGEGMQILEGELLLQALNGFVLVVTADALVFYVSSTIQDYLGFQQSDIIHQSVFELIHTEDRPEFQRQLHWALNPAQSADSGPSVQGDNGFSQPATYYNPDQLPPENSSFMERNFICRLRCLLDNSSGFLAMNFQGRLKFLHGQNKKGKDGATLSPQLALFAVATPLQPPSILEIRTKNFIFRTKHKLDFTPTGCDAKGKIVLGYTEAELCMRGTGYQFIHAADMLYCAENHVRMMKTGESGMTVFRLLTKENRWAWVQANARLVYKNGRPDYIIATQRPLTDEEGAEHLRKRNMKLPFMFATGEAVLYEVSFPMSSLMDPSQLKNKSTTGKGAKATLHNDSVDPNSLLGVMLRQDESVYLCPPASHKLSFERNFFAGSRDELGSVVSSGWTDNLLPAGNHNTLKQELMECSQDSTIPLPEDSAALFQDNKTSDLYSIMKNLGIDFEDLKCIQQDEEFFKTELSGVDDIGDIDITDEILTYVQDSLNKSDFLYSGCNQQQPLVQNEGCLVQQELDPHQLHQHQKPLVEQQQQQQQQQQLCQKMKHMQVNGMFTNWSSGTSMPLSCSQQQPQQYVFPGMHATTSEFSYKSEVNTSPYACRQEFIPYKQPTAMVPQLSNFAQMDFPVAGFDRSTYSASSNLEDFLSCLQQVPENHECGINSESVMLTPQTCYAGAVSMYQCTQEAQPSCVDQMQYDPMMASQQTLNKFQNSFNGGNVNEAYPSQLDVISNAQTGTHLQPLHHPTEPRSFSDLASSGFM
# [2] = biological target: T2, common cormorant AHR1 (ccAHR1) (Phalacrocorax carbo, UniProt Q76CM2)
# T2 construct: gene AHR 1; full-length cDNA in pcDNA3.1 zeo (+), expressed in COS-7 cells; with chicken ARNT1 (ckARNT1)
# T2 sequence (Q76CM2 1-860): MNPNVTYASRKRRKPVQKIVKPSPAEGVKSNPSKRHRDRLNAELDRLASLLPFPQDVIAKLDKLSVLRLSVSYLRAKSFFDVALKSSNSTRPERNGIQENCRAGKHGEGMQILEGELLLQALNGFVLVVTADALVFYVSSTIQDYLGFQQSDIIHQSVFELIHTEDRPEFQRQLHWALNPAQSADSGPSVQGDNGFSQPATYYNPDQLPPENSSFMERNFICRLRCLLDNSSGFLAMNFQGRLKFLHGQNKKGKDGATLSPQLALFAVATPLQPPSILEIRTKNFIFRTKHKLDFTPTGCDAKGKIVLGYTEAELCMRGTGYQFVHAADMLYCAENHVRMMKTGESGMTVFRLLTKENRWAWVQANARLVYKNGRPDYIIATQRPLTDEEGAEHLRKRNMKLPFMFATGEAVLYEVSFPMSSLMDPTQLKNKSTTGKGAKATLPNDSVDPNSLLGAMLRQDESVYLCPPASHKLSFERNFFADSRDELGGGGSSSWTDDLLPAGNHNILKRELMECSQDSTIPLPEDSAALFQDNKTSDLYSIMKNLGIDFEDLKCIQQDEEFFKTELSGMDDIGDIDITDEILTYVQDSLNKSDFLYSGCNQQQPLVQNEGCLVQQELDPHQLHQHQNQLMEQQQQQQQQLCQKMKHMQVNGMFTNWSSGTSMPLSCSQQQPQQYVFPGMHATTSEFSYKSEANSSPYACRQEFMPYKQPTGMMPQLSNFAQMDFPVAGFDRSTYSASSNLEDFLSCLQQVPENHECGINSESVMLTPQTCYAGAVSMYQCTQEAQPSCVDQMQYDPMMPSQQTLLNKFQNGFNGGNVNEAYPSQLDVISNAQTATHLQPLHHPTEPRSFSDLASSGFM
# chicken AHR1 (ckAHR1) = biological target: T3, chicken AHR1 (ckAHR1) (Gallus gallus, UniProt Q9I9E2)
# T3 construct: full-length cDNA in pcDNA3.1 zeo (+), expressed in COS-7 cells; with chicken ARNT1 (ckARNT1)
# T3 sequence (Q9I9E2 1-858): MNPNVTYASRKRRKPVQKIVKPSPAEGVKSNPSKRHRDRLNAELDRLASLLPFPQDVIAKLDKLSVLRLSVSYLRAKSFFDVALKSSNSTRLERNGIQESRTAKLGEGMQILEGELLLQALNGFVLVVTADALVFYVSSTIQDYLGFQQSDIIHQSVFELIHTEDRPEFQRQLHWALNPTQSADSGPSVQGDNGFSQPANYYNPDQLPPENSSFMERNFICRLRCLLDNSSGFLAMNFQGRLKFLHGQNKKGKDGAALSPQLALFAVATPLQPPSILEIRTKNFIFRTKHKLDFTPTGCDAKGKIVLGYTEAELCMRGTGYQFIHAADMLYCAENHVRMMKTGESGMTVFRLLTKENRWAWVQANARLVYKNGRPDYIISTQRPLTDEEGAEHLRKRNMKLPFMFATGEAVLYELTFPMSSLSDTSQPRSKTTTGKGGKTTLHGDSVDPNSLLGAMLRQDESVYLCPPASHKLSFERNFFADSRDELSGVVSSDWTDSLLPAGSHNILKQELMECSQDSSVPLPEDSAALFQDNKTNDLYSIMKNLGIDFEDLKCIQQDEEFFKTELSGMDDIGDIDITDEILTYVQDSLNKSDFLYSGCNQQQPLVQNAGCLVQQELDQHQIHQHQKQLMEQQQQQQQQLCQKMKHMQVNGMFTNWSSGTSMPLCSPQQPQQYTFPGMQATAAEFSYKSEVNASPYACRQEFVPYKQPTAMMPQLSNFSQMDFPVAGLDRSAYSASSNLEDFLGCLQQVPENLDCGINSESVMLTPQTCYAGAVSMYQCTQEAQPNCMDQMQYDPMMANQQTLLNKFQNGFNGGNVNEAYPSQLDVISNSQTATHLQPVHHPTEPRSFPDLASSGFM
structure (smiles),measurement,setting,value
"Brc1ccc2c(c1)Oc1cc(Br)cc(Br)c1O2 [1,3,7-TriBDD, 1,3,7-tribromodibenzo-p-dioxin]",luciferase reporter gene transactivation assay (ckCYP1A5 promoter) in transfecte,[1],12 nM
same,luciferase reporter gene transactivation assay (ckCYP1A5 promoter) in transfecte,[2],120 nM
same,luciferase reporter gene transactivation assay (ckCYP1A5 promoter) in transfecte,chicken AHR1 (ckAHR1),1.2 nM
